Test results taken from the supplement of paper PMC10307832.

Tests used:
Test in all cases: relative viability (nuclei count vs DMSO), 5 days (fraction); higher = more cells survive
Dasatinib + Linsitinib = compound: Cc1nc(Nc2ncc(C(=O)Nc3c(C)cccc3Cl)s2)cc(N2CCN(CCO)CC2)n1 [Dasatinib] + C[C@]1(O)C[C@@H](c2nc(-c3ccc4ccc(-c5ccccc5)nc4c3)c3c(N)nccn32)C1 [Linsitinib] (partner 1 µM)
Summary of the method: (§1)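 Relative viability is defined as nuclei in treated wells over nuclei in vehicle wells. Duplicate plates were run and medians reported. Lung cancer cell lines in 1536-well plates were dosed by pin tool one day after seeding, with one drug or with a fixed anchor-drug dose plus five library-drug doses (not always all listed) in √10 steps, and nuclei were counted after 5 days.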

Dasatinib + OSI-027 = compound: Cc1nc(Nc2ncc(C(=O)Nc3c(C)cccc3Cl)s2)cc(N2CCN(CCO)CC2)n1 [Dasatinib] + COc1cccc2cc(-c3nc([C@H]4CC[C@H](C(=O)O)CC4)n4ncnc(N)c34)[nH]c12 [OSI-027] (partner 0.5 µM)
Summary of the method: as §1

Dasatinib + Lapatinib = compound: Cc1nc(Nc2ncc(C(=O)Nc3c(C)cccc3Cl)s2)cc(N2CCN(CCO)CC2)n1 [Dasatinib] + CS(=O)(=O)CCNCc1ccc(-c2ccc3ncnc(Nc4ccc(OCc5cccc(F)c5)c(Cl)c4)c3c2)o1 [Lapatinib] (partner 2 µM)
Summary of the method: as §1

Dasatinib + Phenformin = compound: Cc1nc(Nc2ncc(C(=O)Nc3c(C)cccc3Cl)s2)cc(N2CCN(CCO)CC2)n1 [Dasatinib] + N=C(N)NC(=N)NCCc1ccccc1 [Phenformin] (partner 250 µM)
Summary of the method: as §1

| Cell Line | relative viability (Dasatinib + Linsitinib; first compound 0.005 µM) | relative viability (Dasatinib + Linsitinib; first compound 0.01581 µM) | relative viability (Dasatinib + Linsitinib; first compound 0.05 µM) | relative viability (Dasatinib + Linsitinib; first compound 0.1581 µM) | relative viability (Dasatinib + Linsitinib; first compound 0.5 µM) | relative viability (Dasatinib + OSI-027; first compound 0.005 µM) | relative viability (Dasatinib + OSI-027; first compound 0.01581 µM) | relative viability (Dasatinib + OSI-027; first compound 0.05 µM) | relative viability (Dasatinib + OSI-027; first compound 0.1581 µM) | relative viability (Dasatinib + OSI-027; first compound 0.5 µM) | relative viability (Dasatinib + Lapatinib; first compound 0.005 µM) | relative viability (Dasatinib + Lapatinib; first compound 0.01581 µM) | relative viability (Dasatinib + Lapatinib; first compound 0.05 µM) | relative viability (Dasatinib + Lapatinib; first compound 0.1581 µM) | relative viability (Dasatinib + Lapatinib; first compound 0.5 µM) | relative viability (Dasatinib + Phenformin; first compound 0.005 µM) | relative viability (Dasatinib + Phenformin; first compound 0.01581 µM) | relative viability (Dasatinib + Phenformin; first compound 0.05 µM) | relative viability (Dasatinib + Phenformin; first compound 0.1581 µM) | relative viability (Dasatinib + Phenformin; first compound 0.5 µM) |
| --- | --- | --- | --- | --- | --- | --- | --- | --- | --- | --- | --- | --- | --- | --- | --- | --- | --- | --- | --- | --- |
| HCC-78 | 0.376 | 0.447 | 0.408 | 0.363 | 0.24 | 0.317 | 0.361 | 0.267 | 0.326 | 0.257 | 0.359 | 0.694 | 0.696 | 0.478 | 0.19 | 0.436 | 0.581 | 0.581 | 0.465 | 0.245 |
| LCLC-97TM1 | 0.17 | 0.203 | 0.2 | 0.163 | 0.129 | 0.557 | 0.598 | 0.55 | 0.606 | 0.38 | 1.2 | 1.2 | 0.772 | 0.904 | 0.362 | 0.451 | 0.439 | 0.45 | 0.449 | 0.168 |
| NCI-H1563 | 0.961 | 0.794 | 0.779 | 0.761 | 0.601 | 0.702 | 0.691 | 0.626 | 0.618 | 0.541 | 0.868 | 0.708 | 0.758 | 0.656 | 0.506 | 0.67 | 0.573 | 0.595 | 0.636 | 0.517 |
| NCI-H838 | 0.832 | 0.628 | 0.573 | 0.243 | 0.221 | 0.409 | 0.266 | 0.265 | 0.252 | 0.179 | 0.925 | 0.678 | 0.504 | 0.252 | 0.237 | 0.481 | 0.387 | 0.302 | 0.204 | 0.176 |
| NCI-H520 | 0.719 | 0.598 | 0.453 | 0.249 | 0.19 | 0.24 | 0.144 | 0.158 | 0.151 | 0.133 | 0.729 | 0.447 | 0.464 | 0.228 | 0.21 | 0.481 | 0.339 | 0.255 | 0.181 | 0.179 |
| NCI-H2347 | 1.01 | 0.935 | 0.943 | 0.402 | 0.159 | 0.233 | 0.242 | 0.269 | 0.234 | 0.218 | 0.872 | 0.951 | 1.04 | 0.691 | 0.386 | 0.278 | 0.209 | 0.22 | 0.178 | 0.212 |
| NCI-H1944 | 1.15 | 1.34 | 0.787 | 0.419 | 0.276 | 0.365 | 0.404 | 0.284 | 0.179 | 0.174 | 0.598 | 0.736 | 0.577 | 0.334 | 0.268 | 0.185 | 0.149 | 0.15 | 0.154 | 0.123 |
| NCI-H2405 | 0.699 | 0.392 | 0.336 | 0.253 | 0.167 | 0.581 | 0.418 | 0.353 | 0.245 | 0.161 | 0.684 | 0.81 | 0.465 | 0.222 | 0.17 | 0.363 | 0.301 | 0.258 | 0.153 | 0.137 |
| HCC-15 | 0.862 | 0.773 | 0.766 | 0.599 | 0.555 | 0.641 | 0.652 | 0.526 | 0.412 | 0.454 | 0.887 | 0.942 | 0.846 | 0.764 | 0.658 | 0.482 | 0.475 | 0.462 | 0.287 | 0.269 |
